According to patent US9347934B2, “Assays for identifying compounds that modulate bitter taste” (CHROMOCELL CORPORATION, priority 2011, dated 2016):

Columns and labels:
Assay type in all cases: cell-based
TAS2R45 = molecular target: T1, TAS2R45 (Homo sapiens, UniProt P59539); test: Calcium fluorescence functional assay, TAS2R45 cell line; details: 20 mM tastant; cell line expressing human TAS2R45 and mouse Gα15
T1 construct: expressed in transfected cells
T1 sequence (P59539 1-299): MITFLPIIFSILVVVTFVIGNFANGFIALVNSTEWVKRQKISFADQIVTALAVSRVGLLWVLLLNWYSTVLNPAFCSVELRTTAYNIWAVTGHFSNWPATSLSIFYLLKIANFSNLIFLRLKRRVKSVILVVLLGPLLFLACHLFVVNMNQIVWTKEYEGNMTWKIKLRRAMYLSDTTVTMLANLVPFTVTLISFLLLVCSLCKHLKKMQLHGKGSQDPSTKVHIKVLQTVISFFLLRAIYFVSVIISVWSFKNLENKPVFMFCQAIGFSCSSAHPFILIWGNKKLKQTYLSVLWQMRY
Description: (§1) Accordingly, each cell line of the panel expressed a human bitter taste receptor and mouse Gα15 signaling protein.
(§2) Probenecid was not included in the load solution.
(§3) After dye loading, cell plates were placed in a fluorescent plate reader (e.g., FDSS6000 (Hamamatsu, Japan)) and receptor stimulation was measured by adding 50 ul of 3× concentrated ligand/agonist stock. Fluorescence was monitored continuously for 10 s before agonist addition and for 100-250 s after stimulation with agonist.
(§4) Receptor Activation is defined as follows: % Activation=[((Maximum signal fluorescence−Minimum signal fluorescence)−(Maximum control fluorescence−Minimum control fluorescence))/(Maximum buffer fluorescence−Minimum buffer fluorescence)]*100 Functional Response=[(Maximum signal fluorescence−Minimum signal fluorescence)−(Maximum control fluorescence−Minimum control fluorescence)] • Signal Fluorescence: refers to the change in fluorescence seen with addition of ligand • Control fluorescence: refers to the change in fluorescence seen with addition of buffer (negative control) • Calcium signals from ligand and control were normalized to the basal fluorescence of the cells prior to the stimulation.
(§5) A concentration analysis was performed and EC50 values were calculated by nonlinear regression using the formula: Y=Bottom+(Top-Bottom)/(1+10^((Log EC50-X)*Hill Slope)), X=log of dose or concentration, Y=Response (increasing as X increases), Top=maximum signal, Bottom=minimum signal.

TAS2R60 = molecular target: T2, TAS2R60 (Homo sapiens, UniProt P59551); test: Calcium fluorescence functional assay, TAS2R60 cell line; details: for TAS2R60 bitter taste receptor activity (changes in intracellular calcium): 20 mM tastant, cell line expressing human TAS2R60 and mouse Gα15
T2 construct: expressed in transfected cells
T2 sequence (P59551 1-318): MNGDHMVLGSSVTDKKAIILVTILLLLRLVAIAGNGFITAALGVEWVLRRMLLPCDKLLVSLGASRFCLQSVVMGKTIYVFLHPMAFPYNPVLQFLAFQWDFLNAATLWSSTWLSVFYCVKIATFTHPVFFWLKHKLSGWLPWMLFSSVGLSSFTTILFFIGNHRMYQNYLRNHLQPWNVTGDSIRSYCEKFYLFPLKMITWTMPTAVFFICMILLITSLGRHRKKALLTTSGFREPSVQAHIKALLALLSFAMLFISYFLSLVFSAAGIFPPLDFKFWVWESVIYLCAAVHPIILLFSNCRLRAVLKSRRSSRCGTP
Description: as §1, §2, §3, §4, §5

TAS2R44 = molecular target: T3, TAS2R44 (Homo sapiens, UniProt P59538); test: Calcium fluorescence functional assay, TAS2R44 cell line; details: for TAS2R44 bitter taste receptor activity (changes in intracellular calcium): 20 mM tastant, cell line expressing human TAS2R44 and mouse Gα15
T3 construct: expressed in transfected cells
T3 sequence (P59538 1-309): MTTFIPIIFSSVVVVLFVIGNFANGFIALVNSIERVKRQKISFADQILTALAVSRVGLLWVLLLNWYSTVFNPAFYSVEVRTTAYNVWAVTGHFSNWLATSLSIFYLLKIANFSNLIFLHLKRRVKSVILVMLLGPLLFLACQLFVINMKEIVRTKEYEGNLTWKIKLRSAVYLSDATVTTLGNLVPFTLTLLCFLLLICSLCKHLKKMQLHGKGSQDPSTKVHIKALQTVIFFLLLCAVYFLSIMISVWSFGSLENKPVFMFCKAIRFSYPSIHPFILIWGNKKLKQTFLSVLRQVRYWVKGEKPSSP
Description: as §1, §2, §3, §4, §5

TAS2R50 = molecular target: T4, TAS2R50 (Homo sapiens, UniProt P59544); test: Calcium fluorescence functional assay, TAS2R50 cell line; details: 20 mM tastant; cell line expressing human TAS2R50 and mouse Gα15
T4 construct: expressed in transfected cells
T4 sequence (P59544 1-299): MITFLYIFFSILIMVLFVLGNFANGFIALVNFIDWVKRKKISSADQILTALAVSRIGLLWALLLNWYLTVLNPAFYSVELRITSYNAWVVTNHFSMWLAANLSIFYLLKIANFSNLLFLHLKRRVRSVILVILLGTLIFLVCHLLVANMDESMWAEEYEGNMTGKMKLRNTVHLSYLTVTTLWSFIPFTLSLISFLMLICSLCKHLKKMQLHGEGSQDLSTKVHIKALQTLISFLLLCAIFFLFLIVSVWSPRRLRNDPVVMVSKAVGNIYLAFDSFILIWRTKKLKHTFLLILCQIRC
Description: as §1, §2, §3, §4, §5

TAS2R49 = molecular target: T5, TAS2R49 (Homo sapiens, UniProt P59543); test: Calcium fluorescence functional assay, TAS2R49 cell line; details: 20 mM tastant; cell line expressing human TAS2R49 and mouse Gα15
T5 construct: expressed in transfected cells
T5 sequence (P59543 1-309): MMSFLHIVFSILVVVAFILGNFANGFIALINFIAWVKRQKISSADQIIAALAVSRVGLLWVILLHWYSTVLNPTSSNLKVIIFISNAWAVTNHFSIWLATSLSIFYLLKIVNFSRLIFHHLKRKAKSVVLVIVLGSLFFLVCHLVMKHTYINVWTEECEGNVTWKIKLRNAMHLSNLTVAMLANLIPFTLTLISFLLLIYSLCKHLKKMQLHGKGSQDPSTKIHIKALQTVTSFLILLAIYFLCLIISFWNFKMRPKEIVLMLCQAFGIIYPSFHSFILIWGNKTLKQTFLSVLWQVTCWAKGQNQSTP
Description: as §1, §2, §3, §4, §5

TAS2R1 = molecular target: T6, TAS2R1 (Homo sapiens, UniProt Q9NYW7); test: Calcium fluorescence functional assay, TAS2R1 cell line; details: 20 mM tastant; cell line expressing human TAS2R1 and mouse Gα15
T6 construct: expressed in transfected cells
T6 sequence (Q9NYW7 1-299): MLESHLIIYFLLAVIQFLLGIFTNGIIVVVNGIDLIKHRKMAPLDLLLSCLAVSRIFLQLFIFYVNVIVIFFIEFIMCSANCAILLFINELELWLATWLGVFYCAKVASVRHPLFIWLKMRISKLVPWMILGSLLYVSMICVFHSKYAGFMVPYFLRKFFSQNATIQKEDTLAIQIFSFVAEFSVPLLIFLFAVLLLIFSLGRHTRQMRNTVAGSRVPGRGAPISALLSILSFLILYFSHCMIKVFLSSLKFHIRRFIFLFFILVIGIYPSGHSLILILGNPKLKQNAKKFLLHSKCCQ
Description: as §1, §2, §3, §4, §5

Compound | TAS2R45 bitter taste receptor activity (changes in intracellular calcium) (TAS2R45) | TAS2R60 bitter taste receptor activity (changes in intracellular calcium) (TAS2R60) | TAS2R44 bitter taste receptor activity (changes in intracellular calcium) (TAS2R44) | TAS2R50 bitter taste receptor activity (changes in intracellular calcium) (TAS2R50) | TAS2R49 bitter taste receptor activity (changes in intracellular calcium) (TAS2R49) | TAS2R1 bitter taste receptor activity (changes in intracellular calcium) (TAS2R1) | EC50 (TAS2R60; increasing concentrations of KCl, TAS2R60 cell line (FIG. 3), read-out: EC50 value, activation of TAS2R60) | EC50 (TAS2R44; increasing concentrations of KCl, TAS2R44 cell line (FIG. 3), read-out: EC50 value, activation of TAS2R44)
CC1=CC(=O)NS(=O)(=O)O1 [Acesulfame K] | did not induce | did not induce | induced | did not induce | did not induce | induced | – | –
[Cl-].[K+] [KCl, potassium chloride] | did not induce | induced | induced | did not induce | did not induce | did not induce | 5 to 15 mM | 5 to 15 mM
CC(O)C(=O)[O-].[K+] (centres unmarked) [Potassium lactate, potassium lactate] | did not induce | induced | induced | did not induce | did not induce | did not induce | – | –
